Like-named read-outs stand apart in the source and are kept apart here.
Tested on: Pyricularia oryzae
Type: cell-based

With `CC1(C)CC/C(=C\c2ccc(Cl)cc2)C1(O)Cn1cncn1` (single isomer, unassigned; (+)) [Triticonazol, (+) E-5-(4-chlorobenzylidene)-2,2-dimethyl-1-(1H-1,2,4-triazol-1-ylmethyl)cyclopentanol] the “Efficacy (%)” value (single compound, Conc 2 ppm, micro titer plate, 405 nm, 7 days after inoculation) was 44%.

In the case of `CN/C(=N\[N+](=O)[O-])NCc1cnc(Cl)s1` [Chlothianidin, (E)-1-(2-chloro-1,3-thiazol-5-ylmethyl)-3-methyl-2-nitroguanidine], the “Efficacy (%)” value is reported as 8%.
